Measured values published in publication PMC12693396, “Discovery of Influenza Neuraminidase Inhibitors: Structure-Based Virtual Screening and Biological Evaluation of Novel Chemotypes” (Molecules, 2025).

What was measured:
[1] = biological target: recombinant Influenza A H1N1 (A/California/04/2009) neuraminidase (Influenza A virus (A/California/04/2009(H1N1)), UniProt C3W5S3); assay: Fluorometric MUNANA neuraminidase inhibition assay (NA-Fluor kit); assay type: biochemical
in vitro = details: human

Compound | CC50 at 24 h (in vitro) [µM] | further results
O=C(O)C1CCCN(C(=O)c2c[nH]c3ccccc23)C1 (stereo not shown) [Compound 1, 1-(1H-Indol-3-ylcarbonyl)-3-piperidinecarboxylic acid] | – | IC50 [1]: > 1000 µM; inhibition at 100 µM ([1]; read-out: mean inhibition of NA activity, at 100 µM): > 15%
O=C(O)CCC(=O)c1c[nH]c2ccccc12 [Compound 3, γ-Oxo-1H-indole-3-butanoic acid] | 671 | –
COc1cccc2[nH]cc(C(=O)O)c12 [Compound 4, 4-Methoxy-1H-indole-3-carboxylic acid] | 244 | –
COc1ccc([C@H]2[C@@H](C(=O)O)c3ccccc3C(=O)N2Cc2ccc(Cl)cc2)cc1 [Compound 5, (3R,4S)-2-[(4-Chlorophenyl)methyl]-1,2,3,4-tetrahydro-3-(4-methoxyphenyl)-1-oxo-4-isoquinolinecarboxylic acid] | 152 | –
COc1cc2c(cc1OC)C(C(C)C)N(S(N)(=O)=O)CC2 (stereo not shown) [Compound 6, 3,4-Dihydro-6,7-dimethoxy-1-(1-methylethyl)-2(1H)-isoquinolinesulfonamide] | 534 | –
CCOC(=O)C1=C[C@@H](OC(CC)CC)[C@H](NC(C)=O)[C@@H](N)C1 [oseltamivir, Oseltamivir phosphate, reference compound] | – | inhibition of NA activity ([1]; 0.1 µM): approximately 20%
